In patent US20060234909A1, “Compositions and methods for increasing drug efficiency” (priority 2003, published 2006):
Primed or numbered codes have the meaning given here. * marks the point of attachment. 10Ca‑PXL = paclitaxel conjugated at C10 via a carbamate; 10Ca‑PXL″ = paclitaxel attached at C10 via carbamate; PEG(13) = PEG13 linker; Piv = CC(C)(C)C(=O)*; OBn = c1ccc(CO*)cc1

Assays:
[1] = molecular target: Akt (Homo sapiens, UniProt P31749); experiment: Akt kinase assay (PKLight ATP utilization, substrate phosphorylation as % of parent peptide); type: biochemical; set-up: purchased Upstate (Charlottesville, Va.) 14-276
Akt, sequence (P31749 whole entry): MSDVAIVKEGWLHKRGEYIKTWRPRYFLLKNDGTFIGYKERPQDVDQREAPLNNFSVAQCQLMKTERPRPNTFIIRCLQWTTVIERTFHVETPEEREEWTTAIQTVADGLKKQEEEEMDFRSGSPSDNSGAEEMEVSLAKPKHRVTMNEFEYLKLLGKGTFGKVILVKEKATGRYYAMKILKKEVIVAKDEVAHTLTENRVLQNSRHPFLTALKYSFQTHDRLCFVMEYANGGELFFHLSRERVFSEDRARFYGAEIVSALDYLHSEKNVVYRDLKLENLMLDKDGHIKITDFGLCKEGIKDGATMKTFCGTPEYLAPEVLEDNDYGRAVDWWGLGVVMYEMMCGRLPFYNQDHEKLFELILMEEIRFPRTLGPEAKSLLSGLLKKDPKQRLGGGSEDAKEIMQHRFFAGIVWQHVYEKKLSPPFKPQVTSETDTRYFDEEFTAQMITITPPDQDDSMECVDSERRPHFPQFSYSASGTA
Method: Another test may involve monitoring the consumption of ATP. For example, ATP concentrations at time 0 or after 4 hour incubation may be monitored by luciferase reaction (PKLight kit obtained from Cambrex Corporation, One Meadowlands Plaza, East Rutherford, N.J. 07073), which generate a luminescence readout in the presence of ATP. Assays are initiated by mixing a kinase and a peptide in the presence of 40 μM ATP. After 4 hour of incubation at 30° C., PKLight reagent is added and mixed well, and luminescence readout measured. The rate of peptide phosphorylation is then directly related to the rate of decrease in the observed luminescence. Based on the first test, linkers of appropriate lengths and peptides with an effective amount of kinase activity which may be expected to be retained in the drug conjugate may be found.
Human Src (#14-326) and Akt (#14-276) kinases were purchased from Upstate (Charlottesville, Va.). Kinase reactions were carried out in 50 μl kinase reaction cocktail (25 mM Tris-HCl, pH 7.5, 5 μM β-glycerophosphate, 2 mM DTT, 0.1 mM Na3VO4, 10 mM MgCl2, 1 mg/ml BSA, […], 0.5 to 1.0 units enzyme). Substrates (peptide or drug-peptide conjugate in […]) were added (25, 50 and 100 μM) and the reaction was incubated for 2-5 hours at 30° C. PKLight reagent (23 μl) (Cambrex BioSciences, Rockland, Me.) was mixed with […] of the above kinase reaction and ATP utilization relative to no substrate and no ATP controls was determined by measuring luminescence with a SpectraMax Gemini EM plate reader (Molecular Devices, Sunnyvale, Calif.). Peptide substrates for Src and Akt have been described. For examples, see Lou et al. Letters in Peptide Science, 2, 289-296 (1995); Lou et al. Bioorganic & Medicinal Chemistry, 4, 677-682 (1996); Alessi et al. FEBS Letters, 399, 333-338 (1996). Substrate phosphorylation potential was determined from the linear portion of the substrate concentration dose response as a percentage of the activity observed with the parent peptide used for drug conjugation.

[2] = system: MCF-7 cells; conditions: read-out: MCF7 (EC50 Ave) SA; MCF7, SA (soft agar)
[3] = system: HT-29 cells; conditions: read-out: HT29 (EC50 Ave) SA; HT29, SA (soft agar)
[4] = system: HUVEC; experiment: Cytotoxicity assay (monolayer), HUVEC; type: cell-based; conditions: ML (monolayer), read-out: HUVEC (EC50 Ave) ML
[5] = system: MCF-7 breast carcinoma; experiment: Cytotoxicity assay (monolayer), MCF-7; type: cell-based; conditions: MCF7, ML (monolayer); read-out: MCF7 (EC50 Ave) ML;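 note: cells treated 72 h with 6-8 compound doses versus DMSO vehicle controls, EC50 fitted by 4-parameter dose-response curves, averaged across all tests and lots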
[6] = system: tubulin; experiment: Fluorescence-based tubulin polymerization assay (MPA; enhancement for paclitaxel, inhibition for vinblastine); type: biochemical
Summary of the method: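 Tubulin polymerisation was followed by fluorescence (ex 360/em 405 nm) with 1 mg/ml BSA in all assays. For paclitaxel conjugates, glycerol was omitted. Parent drugs and conjugates were tested at 0.75, 1.5, 3 and 10 micromolar final, and values come from the linear range of the dose responses.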

[7] = system: HT-29 colorectal carcinoma; experiment: Cytotoxicity assay (monolayer), HT-29; type: cell-based; conditions: HT29, ML (monolayer); read-out: HT29 (EC50 Ave) ML;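 note: monolayer cultures tested in triplicate, compound exposure for three days against DMSO vehicle controls, EC50 fitted from dose-response curves and averaged across all tests and lots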
[8] = system: Normal human foreskin fibroblasts (HFF); conditions: read-out: HFF (EC50 Ave) ML; HFF, ML (monolayer)

Substance	Ave. Akt Kinase Act. [1]	EC50 [2]	EC50 [3]	EC50 [4]	EC50 [5]	Ave. MPA Act. [6]	EC50 [7]	EC50 [8]
Pv-GRPRAAAFAEG-PEG(13)-10Ca-PXL (Piv-GRPRAAAFAEG-{PEG(13)-10Ca‑PXL}; also: 2 TFA salt)	C (C>40)	20 to 100 nM	20 to 100 nM	> 100 nM	> 100 nM	C (C>80)	> 100 nM	> 100 nM
Ac-RPRTSSF-PEG(13)-10Ca-PXL (N-acetyl; PEG(13) linker; paclitaxel conjugate)	C (C>40)	> 100 nM	20 to 100 nM	> 100 nM	> 100 nM	C (C>80)	> 100 nM	> 100 nM
CBz-RPRTSSF-PEG(13)-10Ca-PXL (N-CBz; PEG(13) linker; paclitaxel conjugate)	C (C>40)	20 to 100 nM	20 to 100 nM	> 100 nM	> 100 nM	C (C>80)	20 to 100 nM	> 100 nM
CBz-RPRTSSF-PEG(13)-10Ca-PXL x (N-CBz; PEG(13) linker; paclitaxel conjugate; salt)	C (C>40)	> 100 nM	> 100 nM	> 100 nM	> 100 nM	C (C>80)	> 100 nM	> 100 nM
BOC-RPRTSSF-PEG(13)-10Ca-PXL (N-BOC; PEG(13) linker; paclitaxel conjugate)	C (C>40)		> 100 nM	> 100 nM		C (C>80)		20 to 100 nM
Pv-GRPRTSSFAE(Bzl)G-PEG(13)-10Ca-PXL (Piv-GRPRTSSFAE(OBn)G-{PEG(13)-10Ca‑PXL″})	C (C>40)	> 100 nM	> 100 nM	> 100 nM	> 100 nM	C (C>80)	> 100 nM	> 100 nM
CBz-GRPRTSSFAE(Bzl)G-3Am-VBL	C (C>40)	20 to 100 nM	20 to 100 nM	< 20 nM	20 to 100 nM	B (B=50-80)	20 to 100 nM	20 to 100 nM
